Data: patent US20040166509A1, “Detecting hormonally active compounds” (priority 2002, published 2004)

Assays:
[1] = test system: LMB genes (ER alpha, ER gamma, StAR); set-up: species or system largemouth bass (LMB); details: Table II, test not stated
[2] = test system: hepatic mRNA of adult male SHMs; experiment: SHM estrogen responsive macroarray (54 cDNA clones), E2 exposure; type: in vivo, sheepshead minnow (SHM); details: adult male SHM liver; aqueous 100 ng/L E2 in TEG, 5 days; vs TEG control
Protocol: Total hepatic mRNA was extracted from 5 adult male SHMs treated by aqueous exposure to 100 ng/L of E2 dissolved in triethylene glycol (TEG) for 5 days. Minipreps of 54 cDNA clones derived from DD analysis were PCR amplified using primers specific to the M13 sequence of the cloning vector (pGEMT-Easy, Promega, Madison,Wis.). After the PCR reactions the products were purified in spin-columns (Qiagen, Chatsworth, Calif.) and then concentrated in a speed-vac. The cDNA samples were denatured with NaOH, heated to 65° C. for 10 min, and then immediately quenched on ice. 20×SSC (3M NaCl, 0.3M sodium citrate, pH 7.0) that contained 0.01 mM bromophenol blue was then added to the samples to yield a final concentration of 0.3M NaOH, 6×SSC, and 100 ng/μL cDNA template. The samples were then robotically spotted (Biomek 2000, Beckman Coulter, Fullerton, Calif.) in duplicate onto neutral nylon membranes (Fisher Scientific, Pittsburgh, Pa.) using 100 nL pins. The membranes were UV cross-linked and then stored under vacuum at room temperature until hybridized. Various controls, which provided information about the cDNA labeling efficiency, blocking, and non-specific binding of the arrays, were also spotted onto the membranes. These controls included: 3 Arabidopsis thaliana cDNA clones, Cot-1 repetitive sequences, poly A sequence (SpotReport 3, Stratagene, La Jolla, Calif.), and a M13 sequence (vector but no cDNA insert). Labeling of RNA probes and hybridization of blots was performed as described in Example 1.
FIGS. 4A and 4B contain blots of control (TEG-treated) and E2-treated fish, respectively. FIG. 4C is a plot of the mean intensity values. Genes on the macroarray were designated as constitutive genes if their intensity values fell within the range of the highest (1.27) and lowest (0.83) value of the 17 cDNA clones that were used to normalize the data.

hepatic RNA of LMB = experiment: LMB gene array (132 genes): hepatic gene expression after IP injection; type: in vivo, largemouth bass (LMB); details: male LMB liver, two-fold cutoff vs control; for LMB50-1 (clone 50-1) expression / LMB67-1 signal peptidase, endopeptidase expression: 48 h after single IP 4-NP 50 mg/kg
[3] = test system: hepatic mRNA of adult male SHMs; experiment: SHM cDNA macroarray (30 genes): hepatic gene expression profiles of exposed fish; type: in vivo, sheepshead minnow (SHM)
[4] = test system: estrogen receptors alpha, beta, and gamma, and Vtg 1 mRNA; experiment: Real-time PCR of ER and Vtg 1 mRNA in LMB liver; type: in vivo, largemouth bass (LMB); details: male LMB liver
Excerpt: Experimental Design and Sample Collection: Adult male LMB were purchased from American Sports Fish Hatchery (Montgomery, Ala.) and maintained in fiberglass tanks as previously described (Larkin et al., Comp. Biochem. Physiol. B. Biochem. Mol. Biol. 133:543-557, 2002; Larkin et al., Marine Environ. Res. 54:395-399, 2002; and Larkin et al., Comparative Biochemistry and Physiology 133:543-557, 2002). Array technology as a tool to monitor exposure of fish to xenoestrogens. Marine Environ. Res., 2002; Bowman et al., Mol. Cell. Endocrinol. 196:67-77, 2002). Each fish was injected IP with either 50 mg/kg 4-NP (Fluka, St. Louis, Mo. # 74430), the combination of 50 mg/kg 4-NP and 1.0 mg/kg ICI 182,780 (Tocris Cookson), or vehicle, which consisted of ethanol and DMSO (Sigma, St. Louis, Mo. #5879). Each dose was dissolved in 1 ml of ethanol and then diluted to the appropriate concentration with DMSO. The fish were euthanized by submersion in a water bath containing 50-100 ppm […] 48 hours post injection and sacrificed by a sharp blow to the head followed by cervical transaction. The livers were excised and immediately flash frozen in liquid nitrogen. The frozen tissues were stored at −80° C. until RNA was isolated.
RNA Isolation: Isolation of total RNA from liver tissue was performed with the RNA Stat-60 reagent (Tel-test). Briefly, 30 mg-50 mg of tissue stored in RNA later was homogenized in 0.9 mls STAT 60, choloroform was added, and the mixture was centrifuged at 12,000 g for 15 minutes at 4° C. The extraction process was repeated and the pooled RNA was added to 500 μl isopropanol and allowed to precipitate at −20° C. for at least one hour. Following centrifugation at 12,000 g for 50 minutes, the pellet was washed with 70% ethanol, air dried and resuspended in an appropriate volume (50 μl-120 μl of RNA secure. The samples were treated with RNA secure (Ambion, Austin Tex. #7010) to inactivate contaminating RNases. All isolated RNA was treated with DNase solution (Ambion, Austin, Tex. #1906) following the manufacture's protocol. For all RNA samples, the quantity and quality of total RNA was assessed by spectrophotometric readings at 260 nm and by electrophoresis through a 1% formaldahyde agarose gel stained with ethidium bromide.
Real-Time PCR: Real time PCR was performed using reagents and a 5700 thermocycler purchased from Applied Biosystems (ABI, Foster City, Calif.). The nucleotide sequences of the primers for the ER subtypes and Vtg 1 are as follows: 5′, […] (SEQ ID NO:563) AND 5′[…] (SEQ ID NO:564). Probes and primers for the ER subtypes and Vtg 1 are described in Bowman et al., Ecotoxicology 8:399-416, 1999; and Bowman et al., Mol. Cell Endocrinol. 196:67-77, 2002. Each real time PCR reaction consisted of 0.01-0.2 μg of reverse transcribed total RNA from liver tissue, 1× universal Taqman master mix (ABI, Foster City, Calif.), and primers and probes in a 25 μl reaction. […] Statistical differences between the treatments were determined by one way analysis of variance with Dunnets post-hoc analysis.
Measurement of ER and Vtg 1 mRNA by real-time PCR: Real-time PCR is a sensitive assay that can be used to quantitate expression levels of genes. Using this technology, assays were designed to quantitate the expression of 4 genes, estrogen receptors alpha, beta, and gamma, and Vtg 1 in LMB following exposure to 4-NP and 4-NP/ICI 182,780. […]

[5] = 48 h after single IP dose: E2 2.5 mg/kg or 4-NP 50 mg/kg
[6] = adult male SHM liver, aqueous E2 65.14 ng/L 5 d, EE2 109 ng/L 4 d, DES 100 ng/L 4 d, pNP 11.81 μg/L 5 d, MXC 5.59 μg/L 13 d, ES 590.3 ng/L, vs untreated control
[7] = adult male SHM liver, aqueous E2 65.14 ng/L 5 d, vs untreated control
[8] = 48 h after single IP dose: E2 2.5 mg/kg or 4-NP 50 mg/kg, listed as NP
[9] = 48 h after single IP dose: E2 2.5 mg/kg, 4-NP 50 mg/kg or p,p′-DDE 100 mg/kg
[10] = 48 h after single IP dose: E2 2.5 mg/kg, 4-NP 50 mg/kg or p,p′-DDE 100 mg/kg, listed as NP
[11] = 48 h after single IP injection, 4-NP 50 mg/kg alone or with ICI 182,780 1.0 mg/kg, not significant

## CC[C@H](CC[C@@H](C)[C@H]1CC[C@H]2[C@@H]3CC=C4C[C@@H](O)CC[C@]4(C)[C@H]3CC[C@]12C)C(C)C [b-sitosterol]
[1]
  LMB_STAR STAR PROTEIN differentially expressed by: dn-reg b-

## C[C@]12CC[C@@H]3c4ccc(O)cc4CC[C@H]3[C@@H]1CC[C@@H]2O [E2, estradiol]
[2]
  choriogenic protein (ZP2) expression: up-regulated (intensity value above ˜1.27 was designated an E2 up-regulated gene)
  transferrin expression: down-regulated (a value below ˜0.83 was designated an E2 down-regulated gene)
  vitellogenin α expression: up-regulated (intensity value above ˜1.27 was designated an E2 up-regulated gene)
  vitellogenin β expression: up-regulated (intensity value above ˜1.27 was designated an E2 up-regulated gene)
Hepatic RNA of LMB; 48 h after single IP E2 2.5 mg/kg
  clone 132-2 expression: up-regulated (only genes that exhibit a two-fold or greater change in expression were considered to be differentially regulated)
Hepatic RNA of LMB; [5]
  four Vtg genes expression: up-regulated (only genes that exhibit a two-fold or greater change in expression were considered to be differentially regulated)
[3]; [6]
  ER α expression: up-regulated (any cDNA clones in the macroarray experiments above a ˜1.66-fold induction were designated as up-regulated genes)
  Vtg α expression: up-regulated (any cDNA clones in the macroarray experiments above a ˜1.66-fold induction were designated as up-regulated genes)
[3]; [7]
  Vtg β expression: up-regulated (any cDNA clones in the macroarray experiments above a ˜1.66-fold induction were designated as up-regulated genes)
  alpha-1-microglobulin/bikunin precursor protein expression: down-regulated (any cDNA clones that had a value below ˜0.42 were designated as down-regulated)
  beta actin expression: down-regulated (any cDNA clones that had a value below ˜0.42 were designated as down-regulated)
  choriogenin 2 expression: up-regulated (any cDNA clones in the macroarray experiments above a ˜1.66-fold induction were designated as up-regulated genes)
  choriogenin 3 expression: up-regulated (any cDNA clones in the macroarray experiments above a ˜1.66-fold induction were designated as up-regulated genes)
  coagulation factor XI expression: up-regulated (any cDNA clones in the macroarray experiments above a ˜1.66-fold induction were designated as up-regulated genes)
  transferrin expression: down-regulated (any cDNA clones that had a value below ˜0.42 were designated as down-regulated)

## CCCCCCCCCc1ccc(O)cc1 [4-NP, para-nonylphenol]
Hepatic RNA of LMB
  LMB50-1 (clone 50-1) expression: down-regulated
  LMB67-1 signal peptidase, endopeptidase expression: up-regulated
Hepatic RNA of LMB; listed as NP
  LMB50-1 (clone 50-1) expression: Down reg NP;
  LMB67-1 signal peptidase, endopeptidase expression: Up-reg NP
Hepatic RNA of LMB; [5]
  LMB5 vitellogenin-2A expression: Up reg E2;
  LMB92-1 (unidentified clone 92-1) expression: up-regulated
  LMB94-1 transferrin expression: down-regulated
  LMB112-1 cathepsin (Aspartic protease) expression: up-regulated
  LMB141 vitellogenin-3 expression: up reg E2; NP,
  four Vtg genes expression: up-regulated (only genes that exhibit a two-fold or greater change in expression were considered to be differentially regulated)
Hepatic RNA of LMB; [8]
  LMB92-1 (unidentified clone 92-1) expression: up-reg E2;
  LMB94-1 transferrin expression: Down-reg.
Hepatic RNA of LMB; [9]
  LMB83 vitellogenin-2 (Vtg 2) expression: up-reg E2;
  LMB87 vitellogenin-1 (Vtg 1) expression: up-reg E2;
  LMB97 choriogenin-3 expression: up-regulated
  LMB108-1 choriogenin-2 expression: up-regulated
Hepatic RNA of LMB; [10]
  LMB97 choriogenin-3 expression: Up-reg E2;
  LMB108-1 choriogenin-2 expression: Up-reg E2; NP;
[1]
  LMB_ER-ALPHA ESTROGEN RECEPTOR ALPHA differentially expressed by: up-reg E2;
[3]; Estrogen receptor alpha (clone ID not given)
  Regulation: up-reg E2; EE2,
[3]; clone SHM2-1: vitellogenin alpha (2)
  Regulation: up-reg E2; EE2,
[3]; clone SHM11: Transferrin
  Regulation: dn-reg E2; EE2,
[3]; clone SHM41: Ubiquitin-conjugating enzyme 9
  Regulation: up-reg NP
[3]; clone SHM72-3: Coagulation Factor XI
  Regulation: up-reg E2; EE2,
[3]; clone SHM76-2: Alphal-microglobulin/bikunin precursor (AMBP) protein
  Regulation: d-reg E2; EE2,
[4]; 48 h after single IP 4-NP 50 mg/kg, p<0.05
  Vtg 1 message levels increase over controls: approximately 40 fold
[4]; 48 h after single IP injection, 4-NP 50 mg/kg alone (p<0.05) or with ICI 182,780 1.0 mg/kg (p<0.08)
  ER α mRNA increase over controls: 80 fold
[4]; [11]
  ER β mRNA decrease vs controls: approximately 1.3 fold
  ER γ mRNA decrease vs controls: ~2.6 fold
